Key:
[1] = biological target: T1, human STING WT (R232); experiment: Human STING HTRF binding assay (competitive, Cisbio 64BDSTGPEG); conditions: 6His tagged human STING WT R232, competition with STING ligand-d2
T1 construct: purchased Cisbio 64BDSTGPEG
Procedure: Binders to human STING WT (R232) were identified using a competitive HTRF assay format (Cisbio 64BDSTGPEG), which uses d2-labeled STING ligand, a 6His tagged human STING protein, and an anti 6His Cryptate-labeled antibody. Compounds compete with the STING ligand-d2 and thereby prevents FRET from occurring, which can be measured by an EnVision™ reader (PerkinElmer).
Assay method: Compounds were delivered as 10 mM DMSO solution, serially diluted by an Agilent Bravo Workstation and transferred to the 384 well assay plate (Perkin Elmer #6005359) using a Cybiwell dispenser. Typically, 8 concentrations were used with the highest concentration at 10 μM or 1 μM in the final assay volume followed by ^˜1:5 dilution steps. DMSO concentration was set to 1% in the final assay volume. The 384 well assay plate contained 20 test compounds and DMSO in column 23 and 24. A cGAMP standard dilution row was prepared according to the manufacturer and transferred to each assay plate. After transfer of compound solution or dilution buffer for negative (high) and positive (low) controls, 5 μl of the human STING protein (cyclic binding domain (residues 138-379) of the WT R232 human version, fused to a 6 His tag at the Nter part; 1:50 dilution in detection buffer) were dispensed to all wells except of the positive control, which received detection buffer only. Plates were the centrifuged for 20 sec at 1000 rpm. After that, 10 μl of Anti-6His-Cryptate antibody/Sting ligand-d2 mix was added to all wells using a Multidrop combi dispenser, followed by another 20 sec/1000 rpm centrifugation step. After an incubation of the plates for 180 min at room temperature, […] at […] (HTRF ratio) was measured using an Envison Reader (PerkinElmer)
Data evaluation and calculation: For data evaluation and calculation, HTRF ratios were calibrated using the cGAMP standard curve. After that, the measurement of the low control was set as 0% control and the measurement of the high control was set as 100% control. The IC50 values were calculated using the standard 4 parameter logistic regression formula. Calculation: [y=(a−d)/(1+(x/c)^b)+d], a=low value, d=high value; x=conc M; c=IC50 M; b=slope;

[2] = tested on: T2, wild-type (GRR) human STING cGAMP binding domain (residues 155-341); experiment: Differential Scanning Fluorimetry (DSF), stability of STING protein against thermal denaturation; conditions: 100 uM compound, 3 uM target protein
T2 construct: His-TEV-hSTING (WT); TEV protease cleavage site (N); made in house; host or cells: E. coli BL21 DE3
Procedure: Dye fluorescence is quenched in aqueous environment and increases upon association of the dye with the hydrophobic parts of the unfolding protein. […] The inflection point of the curve represents the “melting” temperature of the protein (Tm) which is calculated numerically using the Boltzmann equation.
Method: The thermal stability of the STING protein was measured using a specific expression construct of the cGAMP binding domain of wild-type (GRR) human STING comprising residues 155-341 and a N-terminal 8x His-tag in assay buffer containing 20 mM Tris, 150 mM NaCl at pH7.5.
The assay uses Hard-Shell®PCR Plates 384-Well CLR/WHT (Catalog #HSP3805, BIO-RAD), Microseal®‘B’ Adhesive Seals for PCR Plates (Catalog #MSB-1001, BIO-RAD) and was run on a CFX384 Real-Time System (Bio-Rad).
A DMSO stock solution of SYPRO orange (SIGMA S5692-500UL) was prepared.
Compound stock solutions (10 mM in DMSO) were diluted 1:2 in DMSO to an intermediate compound concentration of 5 mM and then further diluted 1:40 in assay buffer resulting in a compound concentration of 125 μM and 2.5% DMSO.
Fluorescent dye stock solution (5000×SYPRO Orange) was then mixed with target protein and buffer to a concentration of 15 uM Protein and 25×SYPRO Orange. 2 ul of this protein-dye-mixture was added to 8 ul compound solution. Final volume was 10 uL. 3-6 well positions were used as negative control (protein with 2% DMSO). The plates were prepared for duplicate measurement and centrifuged for 2 min at 1000 g. In the measurement, 160 cycles of 0.5° C. were used (temperature ramp 15 s/cycle, 15° C. to 95° C.).
Final Assay concentrations for compound characterization were as follows:
100 uM compound, 3 uM target protein, 5×SYPRO Orange, 2% DMSO in 10 ul. All dispensing steps were performed using a HamiltonStar pipetting robot (Hamilton).
Dissociation curves were processed in Bio-Rad CFX Manager. Peak type was set to “negative”.
Compound codes for screen were assigned in the plate layout.
Two replicates of TM measurements were averaged, and the standard deviation was calculated. In cases of SD>1.5° C. the measurement was repeated.
The melting point (Tm) obtained for STING protein alone was subtracted from T obtained for protein incubated with ligand to generate ΔTm values.
Protein production and purification: The protein used for the biophysical experiments was a recombinant human STING protein comprising its cytosolic ectodomain. A codon optimized DNA sequence (for expression in Escherichia coli) encoding amino acid residues 155 to 341 (Swiss Prot Q86WV6) of human STING (WT) was synthesized by GeneArt (Regensburg, Germany) and inserted into a pET17b E. coli expression vector. The protein construct encodes an N-terminal 8× His-tag followed by tobacco etch virus protease (TEV) cleavage site and the above STING gene sequence. The resulting protein sequence for the used STING variant is listed below:
For expression of recombinant human STING above construct was transformed into E. coli BL21 DE3 strain and grown in shake flasks in LB-medium at 37° C. Expression was induced by addition of isopropyl β-D-1-thiogalactopyranoside to a final concentration of 1 mM and cultures shaken overnight. Cell pellets were centrifuged and stored at −70° C. until further use. Protein was purified by cell thawing in lysis buffer (20 mM TRIS-HCl, pH 8, 300 mM NaCl, 2 mM mercaptoethanol, 20 mM imidazole, Complete Protease Inhibitor (Roche) and DNase (Roche)), followed by metal affinity purification using Ni-NTA resins and elution buffer consisting of 20 mM TRIS-HCl, pH 8, 300 mM NaCl, 2 mM mercaptoethanol, 300 mM imidazole and size exclusion chromatography in running buffer (20 mM TRIS-HCl, pH 8, 100 mM NaCl, 2 mM DTT). The peak fraction was collected and concentrated to 2.5 mg/mL.

SMILES	IC50 [1]	DSF ΔTm (K) [2]
COc1nn(C2CC2)cc1-n1cc2c(-c3nn(-c4ccc(P(C)(C)=O)cc4C)c(C)c3C(C)C)cccc2n1 [Example 9, 2-(1-cyclopropyl-3-methoxy-1H-pyrazol-4-yl)-4-{1-[4-(dimethylphosphoryl)-2-methylphenyl]-5-methyl-4-(propan-2-yl)-1H-pyrazol-3-yl}-2H-indazole]	0.0176 µM	22 K
COc1nn(CC(C)(C)O)cc1-n1cc2c(-c3nc(-c4ccc(C(N)=O)cc4OC(F)(F)F)n(C)c3C3CC3)cccc2n1 [Example 11, 4-(5-cyclopropyl-4-{2-[1-(2-hydroxy-2-methylpropyl)-3-methoxy-1H-pyrazol-4-yl]-2H-indazol-4-yl}-1-methyl-1H-imidazol-2-yl)-3-(trifluoromethoxy)benzamide]	0.0423 µM	26 K
Cn1nc(-n2cc3c(-c4nc(-c5ccc(P(C)(C)=O)cc5OC(F)(F)F)n(C)c4C4CC4)cccc3n2)cc1C(F)F [Example 2, 4-{5-cyclopropyl-2-[4-(dimethylphosphoryl)-2-(trifluoromethoxy)phenyl]-1-methyl-1H-imidazol-4-yl}-2-[5-(difluoromethyl)-1-methyl-1H-pyrazol-3-yl]-2H-indazole]	0.0254 µM	30 K
CC[P@](C)(=O)c1ccc(-c2nc(-c3cccc4nn(-c5cc(C6CC6)n(C)n5)cc34)c(C3CC3)n2C)c(OC(F)(F)F)c1 [Example 19, 2-(5-cyclopropyl-1-methyl-1H-pyrazol-3-yl)-4-(5-cyclopropyl-2-{4-[(S)-ethyl(methyl)phosphoryl]-2-(trifluoromethoxy)phenyl}-1-methyl-1H-imidazol-4-yl)-2H-indazole]	0.018 µM	28 K
COc1nn(C2CC2)cc1-n1cc2c(-c3nc(-c4ccc(C(N)=O)cc4OC(F)(F)F)n(C)c3C3CC3)cccc2n1 [Example 16, 4-{5-cyclopropyl-4-[2-(1-cyclopropyl-3-methoxy-1H-pyrazol-4-yl)-2H-indazol-4-yl]-1-methyl-1H-imidazol-2-yl}-3-(trifluoromethoxy)benzamide]	0.0138 µM	32 K
CC[P@](C)(=O)c1ccc(-c2nc(-c3cccc4nn(-c5cc(C(F)(F)F)n(C)n5)cc34)c(C3CC3)n2C)c(OC(F)(F)F)c1 [Example 10, 4-(5-cyclopropyl-2-{4-[(S)-ethyl(methyl)phosphoryl]-2-(trifluoromethoxy)phenyl}-1-methyl-1H-imidazol-4-yl)-2-[1-methyl-5-(trifluoromethyl)-1H-pyrazol-3-yl]-2H-indazole]	0.0319 µM	30 K
CCOc1nn(C)cc1-n1cc2c(-c3nc(-c4ccc(C(N)=O)cc4OC(F)(F)F)n(C)c3C3CC3)cccc2n1 [Example 4, 4-{5-cyclopropyl-4-[2-(3-ethoxy-1-methyl-1H-pyrazol-4-yl)-2H-indazol-4-yl]-1-methyl-1H-imidazol-2-yl}-3-(trifluoromethoxy)benzamide]	0.0409 µM	30 K
COCc1cc(C(N)=O)ccc1-c1nc(-c2cccc3nn(-c4cn(C5CC5)nc4OC)cc23)c(C2CC2)n1C [Example 12, 4-{5-cyclopropyl-4-[2-(1-cyclopropyl-3-methoxy-1H-pyrazol-4-yl)-2H-indazol-4-yl]-1-methyl-1H-imidazol-2-yl}-3-(methoxymethyl)benzamide]	0.0096 µM	25 K
CC[P@](C)(=O)c1ccc(-c2nc(-c3cccc4nn(-c5cc(C(F)F)n(C)n5)cc34)c(C3CC3)n2C)c(OC(F)(F)F)c1 [Example 7, 4-(5-cyclopropyl-2-{4-[(S)-ethyl(methyl)phosphoryl]-2-(trifluoromethoxy)phenyl}-1-methyl-1H-imidazol-4-yl)-2-[5-(difluoromethyl)-1-methyl-1H-pyrazol-3-yl]-2H-indazole]	0.0197 µM	30 K
CCP(=O)(CC)c1ccc(-c2nc(-c3cccc4nn(-c5cc(C(F)(F)F)n(C)n5)cc34)c(C3CC3)n2C)c(OC(F)(F)F)c1 [Example 17, 4-{5-cyclopropyl-2-[4-(diethylphosphoryl)-2-(trifluoromethoxy)phenyl]-1-methyl-1H-imidazol-4-yl}-2-[1-methyl-5-(trifluoromethyl)-1H-pyrazol-3-yl]-2H-indazole]	0.0481 µM	29 K
COc1nn(C2CC2)cc1-n1cc2c(-c3nc(-c4ccc(C(N)=O)cc4OCC(F)F)n(C)c3C3CC3)cccc2n1 [Example 6, 4-{5-cyclopropyl-4-[2-(1-cyclopropyl-3-methoxy-1H-pyrazol-4-yl)-2H-indazol-4-yl]-1-methyl-1H-imidazol-2-yl}-3-(2,2-difluoroethoxy)benzamide]	0.016 µM	28 K
COc1nn(C)cc1-n1cc2c(-c3nc(-c4ccc(C(=O)N(C)C)cc4OC(F)(F)F)n(C)c3C3CC3)cccc2n1 [Example 3, 4-{5-cyclopropyl-4-[2-(3-methoxy-1-methyl-1H-pyrazol-4-yl)-2H-indazol-4-yl]-1-methyl-1H-imidazol-2-yl}-N,N-dimethyl-3-(trifluoromethoxy)benzamide]	0.122 µM	26 K
Cn1nc(-n2cc3c(-c4nc(-c5ccc(P(C)(C)=O)cc5OC(F)(F)F)n(C)c4C4CC4)cccc3n2)cc1C(F)(F)F [Example 20, 4-{5-cyclopropyl-2-[4-(dimethylphosphoryl)-2-(trifluoromethoxy)phenyl]-1-methyl-1H-imidazol-4-yl}-2-[1-methyl-5-(trifluoromethyl)-1H-pyrazol-3-yl]-2H-indazole]	0.0491 µM	30 K
CC[P@@](C)(=O)c1ccc(-c2nc(-c3cccc4nn(-c5cn(C6CC6)nc5OC)cc34)c(C3CC3)n2C)c(OC(F)(F)F)c1 [Example 13, 4-(5-cyclopropyl-2-{4-[(R)-ethyl(methyl)phosphoryl]-2-(trifluoromethoxy)phenyl}-1-methyl-1H-imidazol-4-yl)-2-(1-cyclopropyl-3-methoxy-1H-pyrazol-4-yl)-2H-indazole]	0.0189 µM	27 K

Reference: US20250333398A1, “MONOARYL AND HETARYL SUBSTITUTED INDAZOLES AND BENZIMIDAZOLES AS STING ANTAGONISTS AND THE USE THEREOF AS MEDICAMENT” (Boehringer Ingelheim International GmbH, priority 2024, published 2025)
